Data as given in patent publication US20240300913A1, “FLAVONE DERIVATIVE AND USE THEREOF FOR IMPROVING PULMONARY FIBROSIS” (A-CHEMBIO CO., LTD, priority 2023, published 2024).

Experiments:
HLF cells = test: MTT cytotoxicity evaluation in HLF cells; format: cell-based, human; conditions: all treatment concentrations up to 10 μM, incubated for 24, 48, and 72 hours, compared to untreated control
Procedure: (§1) To confirm the effect of novel flavone derivative I on cell viability, human lung fibroblasts (HLF) were used to examine cell viability with MTT [3-(4,5-dimethylthiazol-2-yl)-2,5-diphenyltetrazolium bromide]. After being suspended in a medium, HLF cells were dispensed into a 96-well plate and incubated for 24 hours. […] After incubation, all media was removed, and MTT was diluted (0.5 mg/mL) in phosphate-buffered saline (PBS). Then, 200 μL of the diluted MTT was dispensed into each well, and incubation was performed in a CO2 incubator for 4 hours. After 4 hours, the MTT solution was removed, and 160 μL of dimethyl sulfoxide (DMSO) was dispensed into each well to dissolve the formazan precipitate for 30 minutes. Next, the absorbance was measured at 570 nm.
(§2) Cytotoxicity tests of novel flavone derivative II (Achem II) on A549 cells, HULEC-5a cells, and HLF cells were performed in the same manner as in Example 1 above, using the MTT assay. The results thereof are shown in FIGS. 17 to 19 as cell viability (%) after 24, 48, and 72 hours compared to that of the control group, the untreated sample group.
as §2, with “III” for “II”, “III)” for “II)”, “27” for “17”, “29” for “19”

A549 cells [1] = test: Effect of bleomycin treatment on A549 cells (western blot of protein levels); format: cell-based; conditions: BLM and/or compound, 3, 24, and 48 hours
Procedure: A549 cells, derived from lung cancer, were incubated at different cell numbers depending on the sample treatment time. 4.5×10^5 cells (30 minutes to 12 hours), 4.0×10^5 cells (24 hours), and 3.5×10^5 cells (48 hours) were suspended in the respective media, dispensed into a 60-mm plate, and incubated for 24 hours. After 24 hours, each plate was treated with bleomycin (BLM) alone or in combination with novel flavone derivative I at a predetermined concentration. After a predetermined period of incubation, the cells were lysed with RIPA lysis buffer ([50 mM Tris]-Cl (pH, 7.4), 1% NP-40, 150 mM NaCl, 1 mM EDTA, and 1 mM phenylmethylsulfonyl fluoride (PMSF)) containing MG-132 (10 μM). Next, only the supernatant was collected by centrifugation (at 14,000 rpm for 10 minutes) at 4° C., and the proteins were separated by SDS-polyacrylamide gel electrophoresis (SDS-PAGE). The separated proteins were transferred to a polyvinylidene difluoride membrane (PVDF membrane), reacted in 5% nonfat dry milk for 3 hours, and then reacted with primary antibodies at 4° C. for 12 hours. After 12 hours, the proteins further reacted with secondary antibodies corresponding to the respective primary antibodies. Then, the protein band was examined, according to the manufacturer's protocol, using an ECL kit. […]

HULEC-5a cells [2] = test: MTT cytotoxicity evaluation in HULEC-5a cells; format: cell-based, human; conditions: incubated for 24, 48, and 72 hours
Procedure: as §1, with “viability, HULEC-5a,” for “viability,”, “microvascular endothelial cells,” for “fibroblasts (HLF)”, “HULEC-5a” for “HLF”
as §2
as §2, with “III” for “II”, “III)” for “II)”, “27” for “17”, “29” for “19”

HULEC-5a cells [3] = test: Effect of bleomycin treatment on Hulec-5a cells (western blot of protein levels); format: cell-based, human; conditions: Hulec-5a cells treated with bleomycin, FIG. 14
Procedure: 1.2×10^6 Hulec-5a cells, derived from pulmonary vessels, were suspended in a medium, dispensed into a 100-mm plate, and incubated for 24 hours. After 24 hours, each plate was treated with BLM alone or in combination with novel flavone derivative I at varying concentrations or a predetermined concentration. After a predetermined period of incubation, the cells were lysed with RIPA lysis buffer ([50 mM Tris]-Cl (pH, 7.4), 1% NP-40, 150 mM NaCl, 1 mM EDTA, and 1 mM phenylmethylsulfonyl fluoride (PMSF)) containing MG-132 (10 μM). Next, only the supernatant was collected by centrifugation (at 14,000 rpm for 10 minutes) at 4° C., and the proteins were separated by SDS-polyacrylamide gel electrophoresis (SDS-PAGE). The separated proteins were transferred to a polyvinylidene difluoride membrane (PVDF membrane), reacted in 5% nonfat dry milk for 3 hours, and then reacted with primary antibodies at 4° C. for 12 hours. After 12 hours, the proteins further reacted with secondary antibodies corresponding to the respective primary antibodies. Then, the protein band was examined, according to the manufacturer's protocol, using an ECL kit.

A549 cells [4] = test: MTT cytotoxicity evaluation in A549 cells; format: cell-based; conditions: for cell viability: compared to untreated control
Procedure: To confirm the effect of novel flavone derivative I on cell viability, A549 cells, derived from lung cancer, were used to examine cell viability with MTT [3-(4,5-dimethylthiazol-2-yl)-2,5-diphenyltetrazolium bromide]. After being suspended in a medium, A549 cells were dispensed into a 96-well plate and incubated for 24 hours. After 24 hours, 200 μL of a medium containing 0 to 20 μM BGC was added to each well of the plate and incubated for 24 or 48 hours. After incubation, MTT was diluted (0.5 mg/ml) in phosphate-buffered saline (PBS). Then, 20 μL of the diluted MTT was dispensed into each well, and incubation was performed in a CO2 incubator for 4 hours. After 4 hours, the MTT solution was removed, and 200 μL of dimethyl sulfoxide (DMSO) was dispensed into each well to dissolve the formazan precipitate for 5 minutes. Next, the absorbance was measured at 595 nm.
as §2
as §2, with “III” for “II”, “III)” for “II)”, “27” for “17”, “29” for “19”

SMILES | cell viability (HLF cells) [%] | levels of pulmonary fibrosis-related factors (fibronectin, α-SMA, HIF-1α, NOX1, NOX2, and NOX4), increased by BLM treatment (A549 cells [1]) | cytotoxicity (HULEC-5a cells [2]; treatment concentrations of up to 5 μM, MTT) | levels of pulmonary fibrosis-related factors (fibronectin, α-SMA, HIF-1α, NOX2, and NOX4) (HULEC-5a cells [3]) | cytotoxicity (A549 cells [4]; treatment concentration of 5 μM, incubated for 24 hours, MTT) | cell viability (A549 cells [4]; treatment concentration of 5 μM, incubated for 48 hours) | cell viability (HULEC-5a cells [2]; all treatment concentrations up to 10 μM, compared to untreated control) [%] | cell viability (A549 cells [4]; all treatment concentrations, incubated for 24 and 48 hours) [%] | cell viability (A549 cells [4]; concentrations of 3 μM or higher, incubated for 72 hours) [%]
COc1ccc(-c2c(-c3ccc(O)c(O)c3)oc3cc(OC)c(OC)cc3c2=O)cc1 [novel flavone derivative I, 2-(3,4-dihydroxyphenyl)-6,7-dimethoxy-3-(4-methoxyphenyl)-4H-chromen-4-one] | ≥ 80 | decreased | No cytotoxicity was observed | decreased | No cytotoxicity was observed | about 80% | – | – | –
COc1ccc(-c2c(-c3ccc(O)c(OC)c3)oc3cc(OC)c(OC)cc3c2=O)cc1 [novel flavone derivative II, 2-(4-hydroxy-3-methoxyphenyl)-6,7-dimethoxy-3-(4-methoxyphenyl)-4H-chromen-4-one] | ≥ 80 | – | – | – | – | – | ≥ 80 | ≥ 80 | ≤ 80
